The target of assay [1] is T1, hTA1 T271A (Homo sapiens, UniProt Q96RJ0, T271A).
T1 construct: expressed in transfected cells; host or cells: HEK293T
T1 sequence (Q96RJ0 1-339 T271A): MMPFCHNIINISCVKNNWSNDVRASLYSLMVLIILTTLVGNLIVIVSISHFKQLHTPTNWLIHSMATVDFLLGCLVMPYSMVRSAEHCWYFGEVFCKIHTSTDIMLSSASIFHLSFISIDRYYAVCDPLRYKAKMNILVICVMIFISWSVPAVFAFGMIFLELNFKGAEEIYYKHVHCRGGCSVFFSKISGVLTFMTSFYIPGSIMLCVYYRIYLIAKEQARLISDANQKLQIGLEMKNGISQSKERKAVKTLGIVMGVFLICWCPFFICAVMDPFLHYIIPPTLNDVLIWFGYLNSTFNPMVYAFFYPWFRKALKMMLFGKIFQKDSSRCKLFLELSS
Nature of the assay: GloSensor cAMP accumulation assay, T271A mutant. The assay is classed as cell-based. Background: cAMP levels reflect the balance of adenylyl cyclase and phosphodiesterase activity.

Assay [2] addresses T2, hTA1 C5S (Homo sapiens, UniProt Q96RJ0, C5S).
T2 construct: expressed in transfected cells; host or cells: HEK293T
T2 sequence (Q96RJ0 1-339 C5S): T1 sequence (Q96RJ0 1-339 T271A) with C5S, A271T
Description: GloSensor cAMP accumulation assay, C5S mutant. The assay is classed as cell-based. The following applies: C5S, n=2.

Assay [3] concerns the target T3, hTA1 C88/178S (Homo sapiens, UniProt Q96RJ0, C178S/C88S).
T3 construct: expressed in transfected cells; host or cells: HEK293T
T3 sequence (Q96RJ0 1-339 C88S/C178S): T1 sequence (Q96RJ0 1-339 T271A) with C88S, C178S, A271T
Description: GloSensor cAMP accumulation assay, C88S/C178S double mutant. The assay is classed as cell-based.

Assay [4] concerns the target T4, hTA1 T194A (Homo sapiens, UniProt Q96RJ0, T194A).
T4 sequence (Q96RJ0 1-339 T194A): T1 sequence (Q96RJ0 1-339 T271A) with T194A, A271T
Description: GloSensor cAMP accumulation assay, T194A mutant.

Assay [5] addresses T5, β2AR-Nterm-hTA1-F112^3.41W (CryoEM Construct) (Homo sapiens, UniProt Q96RJ0, F112W).
T5 construct: FLAG (N); 10xHis (N); TEV protease site (N); expressed in transfected cells; host or cells: HEK293T
Description: GloSensor cAMP accumulation assay, cryoEM construct.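 Also: cells transiently co-transfected with the receptor construct and GloSensor cAMP biosensor, luminescence read after 30 min compound exposure at room temperature in the dark as cAMP accumulation.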 The assay is classed as cell-based. The following applies: CryoEM Construct, n=2.

[6] abbreviates: read-out: Span ± SEM (Emax normalized to β-PEA).

Each structure is given as a SMILES string. Positions count from the first letter of the chain named. Several values for one entry are separate records, joined by “and”; a condition that tells them apart may be missing. Equal entries are not always repeated. Where two headings read alike, the source gives them in different places.

T5 sequence (Q96RJ0 with tags, fused parts or gaps F112W): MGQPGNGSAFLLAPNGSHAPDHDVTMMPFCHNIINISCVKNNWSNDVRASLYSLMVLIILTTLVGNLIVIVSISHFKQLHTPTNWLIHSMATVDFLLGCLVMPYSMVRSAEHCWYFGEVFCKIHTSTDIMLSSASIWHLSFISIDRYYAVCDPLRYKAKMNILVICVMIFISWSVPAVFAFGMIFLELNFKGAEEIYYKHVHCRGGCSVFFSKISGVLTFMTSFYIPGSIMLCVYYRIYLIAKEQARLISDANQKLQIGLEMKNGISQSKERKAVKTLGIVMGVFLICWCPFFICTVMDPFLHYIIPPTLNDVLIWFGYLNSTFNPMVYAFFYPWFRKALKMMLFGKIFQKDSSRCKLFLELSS

On to `CN1CC2c3ccccc3Oc3ccc(Cl)cc3C2C1` (stereo not drawn) [asenapine], for which the “reduction in potency vs wild type” value in assay [1] (T271A) is recorded as “roughly 4 fold”. The “Emax values of Asenapine” value in assay [1] (T271A, Mean of one experiment) was determined as 88.882; in assay [4] (T194A, Mean of one experiment) it was 80.8072. For the same compound, the Emax in assay [1] (T271A, Mean of one experiment, read-out: Emax values of Asenapine) was 101%; in assay [1] (T271A, n=2, read-out: Span ± SEM (Emax normalized to β-PEA)), 94.8 ± 5.91%; in assay [2] (setting [6]), 83.2 ± 1.59%; in assay [3] (setting [6]) it was 86.3 ± 8.4%; in assay [4] (read-out: Emax values of Asenapine, T194A, Mean of one experiment), 91.7%; in assay [4] (read-out: Span ± SEM (Emax normalized to β-PEA), T194A) it was 120%. Also, the Emax in assay [5] (setting [6]) came out at 95.2 ± 1.98%. Further, the EC50 in assay [1] (T271A, Mean of one experiment, read-out: pEC50 values of Asenapine (converted)) was 1300 nM and 1020 nM; in assay [1] (T271A, n=2, read-out: EC50) it was 1150 nM; in assay [2] (read-out: EC50) it was 261 nM; in assay [3] (C88/178S, n=2, read-out: EC50), 205 nM; in assay [4] (EC50, T194A), 540 nM; in assay [4] (pEC50 values of Asenapine, T194A, Mean of one experiment) it was 383 nM and 477 nM. Besides, the EC50 in assay [4] (pEC50 ± SEM, T194A) was 457 nM; in assay [5] (read-out: EC50), 51.8 nM; in assay [5] (read-out: pEC50 ± SEM (converted)), 52.5 nM. Further, the “ΔEmax values (each mutant value - WT average), T271A, Mean” value in assay [1] (hTA1 T271A mutant vs WT average, Figure 6B, each line is one experiment (3 replicates)) is 11.9925 and 0.1748. Also, in assay [4] (hTA1 T194A mutant vs WT average, Figure 6B, each line is one experiment (3 replicates)), the “ΔEmax values (each mutant value - WT average), T194A, Mean” value is 2.977 and -7.9001.

As a reminder, the Emax is the greatest response seen or fitted, relative to the assay's reference.

The record behind these values is publication PMC10762035, “Molecular basis of human trace amine-associated receptor 1 activation” (Nature Communications, 2024).
